Experimental data: patent US20120173160A1, “METHODS AND SYSTEMS FOR QUANTITATIVELY ASSESSING BIOLOGICAL EVENTS USING ENERGY-PAIRED SCORING” (The Trustees of the University of Pennsylvania, priority 2010, published 2012)
“Also recorded” adds a separate entry of the source.

Experiments:
Type in all cases: cell-based
Akt-mTOR pathway = assay: EPS Akt-mTOR pathway score in expression data set of cells treated with 1294 compounds; conditions: screen of 1294 compounds, strongest negative pathway scores
Description: A potential application of EPS is to identify inhibitors of a selected pathway by searching for compounds that induce gene expression changes with a strongly negative pathway score. To test EPS's ability to identify small-molecule inhibitors of a pathway from a large library of compounds, an Akt-mTOR pathway signature was developed using gene expression profiles from the prostates of transgenic mice expressing activated Akt that were treated with either the mTOR inhibitor RAD001 or a vehicle control (Majumder et al.). This signature was used to estimate Akt-mTOR pathway activity in a data set derived from three cell lines that had been treated with 1294 different compounds (Lamb et al.). […] In fact, test samples treated with LY-294002 represented 8 of the top 9 samples identified (FIG. 11A).

TGFβ pathway [1] = assay: Western blot of Smad2 phosphorylation in NMuMG cells treated with TGF-β1; conditions: NMuMG cells, 0.15, 0.5, 1.5 or 15 ng/ml, 6 hours
Description: To determine whether EPS could quantitatively estimate signal pathway activity in a biological data set, a genome-wide expression data set was generated to reflect graded increases in TGFβ pathway activation by treating the mammary epithelial cell line, NMuMG, with increasing dosages of TGF-β1 for 6 hours. Signature genes were selected using a p-value of 10^−10 associated with the changes in expression without fold-change cutoff.
(§1) To determine whether EPS could quantitatively estimate dose-dependent increases in TGFβ pathway activity using gene expression data, EPS prediction was compared to biochemical analysis of phospho-Smad2 levels in the same samples. Using a previously published TGFβ signature generated from NMuMG cells treated with TGF-β1 for 24 hours, it was determined whether SVD or EPS could detect pathway activation in NMuMG cells treated with increasing doses of TGF-β1. SVD detected pathway activation only in samples treated with the highest dose of TGFβ (15 ng/ml; FIG. 6B).

TGFβ pathway [2] = assay: EPS estimate of TGFβ pathway activity from gene expression of NMuMG cells treated with TGF-β1
Description: as §1
As expected from increasing TGFβ effects on mRNA levels over time, EPS predicted higher pathway activity in training set samples treated with TGF-β1 for 24 hours than in test samples treated with TGF-β1 for 6 hours. […] Therefore, a TGFβ signature was generated using NMuMG cells treated with the lowest dose of TGFβ (0.15 ng/ml) for the shortest period of time (6 hrs) as the training set. This signature was then used to test the ability of SVD and EPS to predict pathway activation at different TGFβ doses.

Molecule | test samples treated with the compound among the top 9 samples identified (Akt-mTOR pathway) | TGFβ pathway activity as levels of phosphorylated Smad2 (TGFβ pathway [1]) | EPS-predicted TGFβ pathway activation, signature from 24 hours treatment (TGFβ pathway [2]; NMuMG cells, 0.5, 1.5 and 15 ng/ml, 6 hours) | EPS-estimated TGFβ pathway activation, signature from 0.15 ng/ml for 6 hrs (TGFβ pathway [2]; NMuMG cells, increasing doses (0.5, 1.5, 15 ng/ml))
O=c1cc(N2CCOCC2)oc2c(-c3ccccc3)cccc12 [LY-294002] | 8 |  |  | 
TGF-β1: TGF-β1 used to treat the mammary epithelial cell line NMuMG |  | dose-dependent increase in TGFβ pathway activity; also recorded: elevated phospho-Smad2 was detected at all doses | significantly increased pathway activation | progressive increase of TGFβ pathway activation
